Results on two substances are retold here after PMC3925890 (Advanced healthcare materials, 2012).

Experiment [1] concerns the target T1, VEGF (Homo sapiens, UniProt P15692).
T1 sequence (P15692 1-191 isoform P15692-4): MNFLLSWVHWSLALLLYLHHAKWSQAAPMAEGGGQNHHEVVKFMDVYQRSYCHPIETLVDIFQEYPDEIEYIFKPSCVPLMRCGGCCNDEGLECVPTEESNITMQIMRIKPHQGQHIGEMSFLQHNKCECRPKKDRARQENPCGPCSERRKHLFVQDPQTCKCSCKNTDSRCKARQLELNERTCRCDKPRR
Description: Release of VEGF from functionalized microspheres. As to conditions: for bound VEGF released in 24 hours: microspheres incubated in a medium containing 10% FBS; for VEGF release relative to monomer microspheres (in words) / duration of sustained VEGF release: microspheres pre-incubated in 40 ng/ml VEGF solution (Fig. 3a).

In experiment [2] the target is T1, VEGF. Format: binding. The settings on record: Fig. 1b; varying concentrations of VEGF; microspheres containing lysine modified dimers.
Experiment [3] concerns uterine artery endothelial cells (UAECs). As to conditions: 10 ng/ml VEGF-165; compared with VEGF-free condition.

As for (EFdAdYdLdIDFNWEYPAS)2KKKC [dimerb], in experiment [1], the “bound VEGF released in 24 hours” value was determined as 72 ± 2%; the “VEGF release relative to monomer microspheres (in words)” value is “released significantly more VEGF and over a longer period of time relative to microspheres containing the monomer version”; the “duration of sustained VEGF release” value is given as “over 30 days”. In experiment [2], the “VEGF binding efficiency over a range of VEGF concentrations (in words)” value was “consistently showed a higher VEGF binding efficiency than dimera”.

With (EFdAdYdLdIDFNWEYPASK)2KC [dimera], in experiment [3], the “percent of responding UAECs (in words)” value is on record as “reduced to the same level as the VEGF-free condition”. For the same substance, in experiment [1], the “bound VEGF released in 24 hours” value worked out at 48 ± 5%; the “VEGF release relative to monomer microspheres (in words)” value is “released significantly more VEGF and over a longer period of time relative to microspheres containing the monomer version”; the “duration of sustained VEGF release” value is “over 30 days”.
